As a reminder, the Ki is a dissociation constant, usually derived from enzyme kinetics or from competition with a known ligand. In general, Kd refers to the concentration at which binding is half-saturated. Broadly, the IC50 is the point on the concentration scale where inhibition reaches its midpoint. Read a high IC50 as lower potency.

Assay [1] addresses T1, Isopentenyl-diphosphate Delta-isomerase (Escherichia coli (strain K12), UniProt Q46822).
T1 sequence (Q46822 whole entry): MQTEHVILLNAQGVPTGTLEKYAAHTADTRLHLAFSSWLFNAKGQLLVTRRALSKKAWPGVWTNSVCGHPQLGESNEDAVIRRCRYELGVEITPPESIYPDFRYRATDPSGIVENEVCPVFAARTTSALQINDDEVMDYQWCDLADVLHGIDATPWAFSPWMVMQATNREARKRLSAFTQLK
Put plainly: Binding affinity to Escherichia coli IPP isomerase assessed as inhibition constant.

The nature of assay [2]: Binding affinity to IPP isomerase (unknown origin) assessed as dissociation constant. Also on record: species or system Homo sapiens.
In assay [3] the target is T1, Isopentenyl-diphosphate Delta-isomerase. The assay is described as follows: Inhibition of Escherichia coli IPP isomerase.
For assay [4] the target is unchanged. The assay is described as follows: Competitive inhibition of Escherichia coli IPP isomerase assessed as inhibition constant by Lineweaver-burk plot analysis.

Molecules are shown by their SMILES.

As to `NC(N)=NCP(=O)(O)CP(=O)(O)O`, the Ki in assay [1] came to 0.12 µM. For the same compound, in assay [2], the Kd worked out at 1.2 µM.
`CN(C)CCCC(=O)NS(C)(=O)=O` registered an IC50 in assay [3] greater than 5000 µM.
In the case of `N=C(N)NCCP(=O)(O)CP(=O)(O)O`, the Ki in assay [4] and in assay [1] was 0.129 µM each time. The same compound displayed an IC50 in assay [3] of 0.7 µM.
As to `CS(=O)(=O)NC(=O)CCNC(=N)N`, the IC50 in assay [3] stood at 1200 µM.
Consider `CN(C)CCCP(=O)(O)CP(=O)(O)O`, for which the midpoint of inhibition in assay [3], the IC50, lay at 33 µM.
As for `N=C(N)NCCC(=O)NO`, the IC50 in assay [3] turned out to be 670 µM. Compared with the last compound, the IC50 is about 20-fold higher.
